Reference: patent US5866577A, “Aromatic amidine derivatives and salts thereof” (priority 1991, dated 1999)
Where a name gives a salt, the structure may show the parent alone.

What was measured:
[1] = test system: activated partial thromboplastin time (APTT); experiment: Measurement of Anticoagulant Activity in Oral Administration (APTT); assay type: in vivo, male STD:Wistar rat; conditions: rat, 100 mg/kg
Experimental: Measurement of Anticoagulant Activity in Oral Administration
An aqueous solution of each compound to be tested was administered orally to each male STD:Wistar rat individual under an anesthetic, at a dose of 10 ml/kg body weight. Blood samples were collected periodically and blood plasma preparations were obtained from the samples to measure activated partial thromboplastin time (APTT). In the same manner, APTT was measured by administering pure water and used as a control. A test/control APTT ratio was calculated and used as an index of the anticoagulant activity.

[2] = test system: human blood plasma (clotting time); experiment: Measurement of Anticoagulant Activity (plasma clotting time, CT2); assay type: biochemical; conditions: concentration which doubles the control clotting time, 37° C.
Experimental: Measurement of Anticoagulant Activity A blood plasma sample was prepared from human blood using a centrifuge. […] Thereafter, clotting time was measured using CLOTEC (Sanko Junyaku Co., Ltd.). A clotting time measured without adding a compound to be tested was used as a control, and a concentration of the test compound which doubles the control clotting time was calculated (hereinafter referred to as "CT2") as an index of the anticoagulant activity.

human FXa = human FXa (Homo sapiens, UniProt P00742); experiment: Measurement of Activated Blood Coagulation Factor X (FXa) Inhibition Activity; assay type: biochemical; conditions: substrate S-2222, 37° C., 15 minutes
Experimental: Measurement of Activated Blood Coagulation Factor X (FXa) Inhibition Activity
A 180 μl portion of physiological saline solution containing a compound to be tested was mixed with 200 μl of Tris-HCl buffer (pH 8.4) and 100 μl of 1 mM S-2222 (KabiVitrum AB) aqueous solution, and the mixture was incubated at 37° C. 20 μl of Tris-HCl buffered saline (pH 7.45) containing 0.6 unit/ml of human FXa was added to the mixture. After 15 minutes of incubation at the same temperature, the reaction was stopped by adding 100 μl of 60% acetic acid, and absorbance of the reaction mixture was measured. A reaction mixture with no addition of a test compound was used as a blank, and another reaction mixture in which 60% acetic acid was added prior to the addition of FXa was used as a control.

thrombin = molecular target: T1, thrombin (Bos taurus, UniProt P00735); experiment: Measurement of Thrombin Inhibition Activity; assay type: biochemical
T1 construct: thrombin (for topical application use, Sankyo Co., Ltd.); purchased Sankyo Co., Ltd
Experimental: Measurement of Thrombin Inhibition Activity
A 100 μl portion of Tris-HCl buffered saline (pH 7.45) (TBS) containing 6 mg/ml of fibrinogen (Type 1, Daiichi Pure Chemicals Co., Ltd.) was mixed with 100 μl of physiological saline solution. At 37° C., 100 μl of Tris-HCl buffered saline (pH 7.45) (TBS) containing varying amounts of thrombin (for topical application use, Sankyo Co., Ltd.) was added to the mixture prepared above to measure clotting time using CLOTEC (Sanko Junyaku Co., Ltd.) and to prepare a calibration curve.

[3] = Measurement of Solubility in Water
Experimental: A fixed amount of water was added to a varying amounts of each sample, and the mixture was agitated on a shaker at 25° C. for 10 minutes.
male Slc:SD rats = experiment: Toxicity Test by Repeated Oral Administration to Rat; assay type: in vivo; conditions: rat, in vivo, po, 800 mg/kg
Experimental: Toxicity Test by Repeated Oral Administration to Rat
Each of the compounds of the present invention was dissolved in distilled water and administered orally to each of five five-week old male Slc:SD rats, at a dose of 800 mg/kg body weight. The oral administration was carried out once a day and repeated for 10 days to observe mortality.

Chain of human FXa (P00742 235-488 limits assumed): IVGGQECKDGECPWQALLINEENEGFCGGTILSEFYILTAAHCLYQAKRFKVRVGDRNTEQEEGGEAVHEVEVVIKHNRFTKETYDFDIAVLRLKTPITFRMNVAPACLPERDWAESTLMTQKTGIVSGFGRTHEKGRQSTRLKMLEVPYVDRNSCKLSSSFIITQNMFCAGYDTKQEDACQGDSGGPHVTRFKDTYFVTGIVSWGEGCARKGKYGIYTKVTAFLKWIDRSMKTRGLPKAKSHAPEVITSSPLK
Chain of human FXa (P00742 41-179 limits assumed): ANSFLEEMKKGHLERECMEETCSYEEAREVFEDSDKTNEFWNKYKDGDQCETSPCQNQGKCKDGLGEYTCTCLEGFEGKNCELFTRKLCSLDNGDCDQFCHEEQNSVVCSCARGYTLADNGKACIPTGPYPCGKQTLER

SMILES	Test/Control APTT Ratio ([1]; 0.5 hr)	Test/Control APTT Ratio ([1]; 1 hr)	Test/Control APTT Ratio ([1]; 2 hr)	Test/Control APTT Ratio ([1]; 4 hr)	Anti-Coagulation CT2 [2] [µM]	IC50 (human FXa) [nM]	IC50 (thrombin) [nM]	solubility at 10 min [3] [mg/mL]	Mortal Case (male Slc:SD rats)
Cl.Cl.N=C(N)c1ccc2sc(CC(CC(=O)O)c3ccc(O[C@H]4CCNC4)cc3)cc2c1 (stereo partly drawn) [Inventive Example 61, 4-(5-amidinobenzo[b]thien-2-yl)-3-[4-[((3S)-3-pyrrolidinyl)oxy]phenyl]butyric Acid Dihydrochloride]	1.40	1.28	1.21	1.09	–	–	–	–	–
CC(=N)N1CC[C@H](Oc2ccc(C(CC(=O)O)Cc3cc4cc(C(=N)N)ccc4s3)cc2)C1.Cl.Cl (stereo partly drawn) [Inventive Example 104, 3-[4-[((3S)-1-acetimidoyl-3-pyrrolidinyl)oxy]phenyl]4-(5-amidinobenzo[b]thien-2-yl)butyric Acid Dihydrochloride]	–	–	–	–	0.64	86	230000	≥ 450	–
CC(=N)N1CCC(Oc2ccc(C(Cc3cc4cc(C(=N)N)ccc4s3)C(=O)O)cc2)CC1.Cl.Cl (stereo not shown) [Inventive Example 97, 2-[4-[(1-acetimidoyl-4-piperidinyl)oxy]phenyl]-3-(5-amidinobenzo[b]thien-2-yl)propionic acid Dihydrochloride]	–	–	–	–	0.23	45	170000	–	–
CCCCCC(=N)N1CC[C@H](Oc2ccc(C(Cc3cc4cc(C(=N)N)ccc4s3)C(=O)O)cc2)C1.Cl.Cl (stereo partly drawn) [Inventive Example 94, 3-(5-amidinobenzo[b]thien-2-yl)-2-[4-[((3S)-1-n-hexanimidoyl-3-pyrrolidinyl)oxy]phenyl]propionic Acid Dihydrochloride]	–	–	–	–	1.1	100	370000	–	–
CCn1c(CC(C(=O)O)c2ccc(OC3CCN(C(C)=N)CC3)cc2)cc2ccc(C(=N)N)cc21.Cl.Cl (stereo not shown) [Inventive Example 98, 2-[4-[(1-acetimidoyl-4-piperidinyl)oxy]phenyl]-3-(6-amidino-1-ethyl-2-indolyl)propionic Acid Dihydrochloride]	4.07	3.96	3.37	2.19	0.3	11	2500	–	–
Cl.Cl.N=C(N)c1ccc2cc(CC(C(=O)O)c3ccc(O[C@H]4CCNC4)cc3)[nH]c2c1 (single isomer, unassigned; (+)) [Inventive Example 48]	1.46	1.42	1.41	1.18	3	–	–	–	–
Cl.Cl.N=C(N)c1ccc2cc(CC(C(=O)O)c3ccc(O[C@H]4CCNC4)cc3)[nH]c2c1 (single isomer, unassigned; (+)) [Inventive Example 48, Dihydrochloride]	–	–	–	–	–	360	50000	–	–
Cl.Cl.N=C(N)c1ccc2oc(C(Cc3ccc(O[C@H]4CCNC4)cc3)C(=O)O)cc2c1 (stereo partly drawn) [Inventive Example 21, 2-(5-amidino-2-benzofuranyl)-3-[4-[((3S)-3-pyrrolidinyl)-oxy]phenyl]propionic Acid Dihydrochloride]	–	–	–	–	–	–	–	≥ 600	–
Cl.Cl.N=C(N)c1ccc2[nH]c(CC(C(=O)O)c3ccc(O[C@H]4CCNC4)cc3)cc2c1 (stereo partly drawn) [Inventive Example 68, 3-(5-amidino-2-indolyl)-2-[4-[((3S)-3-pyrrolidinyl)oxy]-phenyl]propionic acid Dihydrochloride]	–	–	–	–	1.45	170	190000	–	–
CC(=N)N1CC[C@H](Oc2ccc(C(Cc3nc4cc(C(=N)N)ccc4s3)C(=O)O)cc2)C1.Cl.Cl (stereo partly drawn) [Inventive Example 89, 2-[4-[((3S)-1-acetimidoyl-3-pyrrolidinyl)oxy]phenyl]-3-(5-amidino-2-benzothiazolyl)propionic Acid Dihydrochloride]	1.24	1.22	1.17	1.14	5	600	> 600000	–	–
CC(=N)N1CCC[C@H]1COc1ccc(C(Cc2cc3cc(C(=N)N)ccc3s2)C(=O)O)cc1.Cl.Cl (stereo partly drawn) [Inventive Example 96, 2-[4-[((2S)-1-acetimidoyl-2-pyrrolidinyl)methoxy]phenyl]-3-(5-amidinobenzo[b]thien-2-yl)propionic Acid Dihydrochloride]	1.68	1.64	1.57	1.42	0.54	44	29000	≥ 400	–
Cl.Cl.N=C(N)c1ccc2cc(CC(C(=O)O)c3ccc(O[C@H]4CCNC4)cc3)[nH]c2c1 (stereo partly drawn) [Inventive Example 69, 3-(6-amidino-2-indolyl)-2-[4-[((3S)-3-pyrrolidinyl)oxy]-phenyl]propionic Acid Dihydrochloride]	–	–	–	–	–	–	–	–	0
CC(=N)N1CCC[C@H]1COc1ccc(C(Cc2cc3cc(C(=N)N)ccc3s2)C(=O)O)cc1.Cl.Cl (single isomer, unassigned; (+)) [Inventive Example 41, Dihydrochloride]	–	–	–	–	–	32	9000	–	–
CC(=N)N1CCC(Oc2ccc(C(Cc3ccc4ccc(C(=N)N)cc4c3)C(=O)O)cc2)CC1.Cl.Cl (stereo not shown) [Inventive Example 108, 2-[4-[(1-acetimidoyl-4-piperidinyl)oxy]phenyl]-3-(7-amidino-2-naphthyl)propionic Acid Dihydrochloride]	2.12	2.18	1.69	1.39	0.3	18	250000	≥ 350	–
CCn1c(CC(C(=O)O)c2ccc(O[C@H]3CCNC3)cc2)cc2ccc(C(=N)N)cc21.Cl.Cl (stereo partly drawn) [Inventive Example 73, 3-(6-amidino-1-ethyl-2-indolyl)-2-[4-[((3S)-3-pyrrolidinyl)oxy]phenyl]propionic Acid Dihydrochloride]	–	–	–	–	–	–	–	≥ 450	–
CC(=N)N1CCC(Oc2ccc(C(Cc3ccc4ccc(C(=N)N)cc4c3)C(=O)O)cc2)CC1.Cl.Cl (single isomer, unassigned; (+)) [Inventive Example 43, (+)-2-[4-[(1-acetimidoyl-4-piperidinyl)oxy]phenyl]-3-(7-amidino-2-naphthyl)propionic Acid Dihydrochloride]	–	–	–	–	0.18	13	> 400000	–	–
CC(=N)N1CCC[C@H]1COc1ccc(C(Cc2cc3cc(C(=N)N)ccc3s2)C(=O)O)cc1.Cl.Cl (single isomer, unassigned; (+)) [Inventive Example 41]	–	–	–	–	0.32	–	–	–	–
CCn1c(CC(C(=O)O)c2ccc(O[C@H]3CCN(C(C)=N)C3)cc2)cc2ccc(C(=N)N)cc21 (stereo partly drawn) [Inventive Example 105, 2-[4-[((3S)-1-(acetimidoyl-3-pyrrolidinyl)oxy]phenyl]-3-(6-amidino-1-ethyl-2-indolyl)propionic Acid Dihydrochloride]	2.69	3.60	2.41	1.66	0.35	54	6800	–	–
CC(=N)N1CC[C@H](Oc2ccc(CC(C(=O)O)c3cc4cc(C(=N)N)ccc4s3)cc2)C1 (stereo partly drawn) [Inventive Example 106, 3-[4-[((3S)-1-acetimidoyl-3-pyrrolidinyl)oxy]phenyl]-2-(5-amidinobenzo[b]thien-2-ylpropionic Acid Dihydrochloride]	–	–	–	–	2.3	560	100000	–	–
Cl.Cl.N=C(N)c1ccc2sc(CC(C(=O)O)c3ccc(O[C@H]4CCN(C(=N)C5CC5)C4)cc3)cc2c1 (stereo partly drawn) [Inventive Example 95, 3-(5-amidinobenzo[b]thien-2-yl)-2-[4-[((3S)-1-cyclopropanecarboximidoyl-3-pyrrolidinyl)oxy]phenyl]propionic Acid Dihydrochloride]	–	–	–	–	0.8	160	26000	–	–
